Paper PMC7251927, “Impact of Acute and Chronic Amyloid-β Peptide Exposure on Gut Microbial Commensals in the Mouse” (Frontiers in Microbiology, 2020)

How the values were obtained:
[1] = Gut transition time of orally administered TAMRA-labeled Aβ; format: in vivo, mouse; conditions: 10 μg oral; for Gut segment in which TAMRA fluorescence was detected (2 cm sections, 1 = stomach to 12 = rectal): one animal, technical duplicates
Experimental: (§1) Animals were lightly anesthetized with Isoflurane and 10 μg of peptide or solvent (10 mM NH4OH) administered slowly into the oral cavity. Mice were kept in manual fixation up to ingestion of the fluid to prevent aspiration.
(§2) Animals were deeply anesthetized with isoflurane and sacrificed by decapitation. For microbiome determination, feces pellets close to the rectum were taken. For assessing fluorescence after feeding of TAMRA-labeled Aβ, the whole gut was placed in ice cold isotonic sodium chloride to prevent further peristalsis movement. Segments of 2 cm length were then chopped starting from the stomach, the content collected by longitudinal opening and stored on ice until further use.
After oral application of TAMRA-labeled Aβ or NH4OH as control and sacrifice of the animals 2, 4, or 24 h later, chyme samples were diluted with 500 μl ice cold PBS, incubated for 5 min and centrifuged. Fluorescence was measured by using 50 μl of the supernatant in duplicates (Exc 540 nm and Em 580 nm, FLUOstar Optima, BMG Labtech GmbH, Ortenberg, Germany) at intervals of 1 min over a period of 1 h at 37°C with shaking before every measurement. The mean of the values of the measurements between 15 and 45 min was used to calculate the difference between the TAMRA-labeled Aβ-treated animals and solvent-treated control animals.
FIGURE 2 Stability and time-dependent localization of per os administered Aβ peptides in the murine gastrointestinal tract. (A) TAMRA-labeled Aβ peptide was incubated in two different concentrations [high (H): 0.025 μM; low (L): 0.005 μM] with PBS-diluted gastric content of wild type mice for 2 h at 37°C. Solvent of the peptide was used as a negative control (–). Additionally, samples with PBS instead of chyme were incubated as described (buffer). Proteins were separated on PAA gel and transferred to nitrocellulose. […] (B) To assess the passage of orally administered Aβ peptides, wild type or 5xFAD mice were fed with 10 μg of TAMRA-labeled Aβ peptides and sacrificed at indicated time points. TAMRA-dependent fluorescence was determined in the chyme of 2 cm gut sections numbered from 1 (oral end = stomach) to 12 (rectal section). Values are presented as measured difference between the TAMRA-Aβ-treated animals and solvent-treated control animals (one animal per time point, technical duplicates).

Enterococcus faecalis = system: Enterococcus faecalis; parameters: method as in Soscia et al., 2010; conditions: single microbial species; ref Soscia et al., 2010; cited from earlier work
[2] = system: murine fecal microorganisms; assay: Bacterial viability assay (BacTiter Glo) on diluted fecal samples; format: cell-based, mouse; conditions: 2 μM peptide, 10 min incubation, luminescence, n = 13 animals
Experimental: Freshly collected fecal pellets were suspended in isotonic sodium chloride solution (0.9%, 100 μl/mg) using a hand-held electric stirrer (Xenox, Fähren, Germany). Aliquots of 50 μl were supplemented with 5 μl of peptide solution in 0.4 mM NH4OH buffered in PBS. After 10 min incubation at room temperature under careful mixing for every 2 min, 20 μl of this suspension were added to 4 ml of thioglycollate bouillon (Becton Dickinson GmbH, Heidelberg, Germany) and kept for overnight at […]. The following day, 1 μl of the diluted fecal suspension was spread on Schaedler agar plates (Becton Dickinson GmbH, Heidelberg, Germany) and incubated for 48 h anaerobically (Anoxomat, Mart Microbiology B.V, Drachten, Netherlands). Lastly, colony forming units (CFU) were counted and normalized to controls from the same donor mouse incubated with scrambled peptide.
After incubation of diluted feces samples with Aβ peptide or scrambled control for plating (see above), additional 1:100 dilutions were prepared and viability measured by using the BacTiter Glo assay as indicated by the vendor (Promega, Mannheim, Germany). Relative luminescence was measured and normalized to controls from the same donor mouse incubated with scrambled peptide.
Viability was measured and calculated in percent of scrambled peptide treated samples (n = 13 animals per group,♂ = 6–7, ♀ = 6–7). […]

Enterobacteriaceae = assay: Family-specific cultivation, CFU on Petrifilm plates selective for Enterobacteriaceae; format: cell-based, mouse; conditions: 2 μM, plates 20 h at 37°C
Experimental: (§3) For assessing toxic effects of Aβ on specific microbial families, freshly collected feces was suspended and incubated with 2 μM peptide solution as described above. Afterward, feces suspensions were diluted with 0.9% sodium chloride solution for plating 1 ml on 3M^TM-Petrifilm plates specific for Enterobacteriaceae and Lactobacillaceae (3M Deutschland GmbH, Neuss, Germany). Plates were incubated for 20 h at 37°C. CFU were counted and normalized to samples from the same donor mouse incubated with scrambled peptide.
(§4) Viability was measured and calculated in percent of scrambled peptide treated samples (n = 13 animals per group,♂ = 6–7, ♀ = 6–7). […] Subsequently, aliquots of further diluted bacteria suspension were plated on Schaedler agar and incubated anaerobically for 48 h at 37°C. Number of colony forming units (CFU) of samples treated with scrambled peptide control were set to 100% (n = 7 animals per group; ♂ = 3, ♀ = 4). […] Datapoints for individual normalized measurements are shown in each graph (*p < 0.05; **p < 0.01).

Lactobacillaceae = assay: Family-specific cultivation, CFU on Petrifilm plates selective for Lactobacillaceae; format: cell-based, mouse; conditions: 2 μM, plates 20 h at 37°C, n = 10–11
Experimental: as §3, §4

gut microbiome = assay: 16S rDNA sequencing of the gut microbiome after oral peptide application; format: in vivo, mouse; conditions: female wild type mice, 10 μg peptide oral once, feces
Experimental: as §1, §2

Candida albicans = system: Candida albicans; parameters: method as in Soscia et al., 2010; conditions: single microbial species; ref Soscia et al., 2010; cited from earlier work

Substance: TAMRA-labeled Aβ42: TAMRA-labeled Aβ peptide (AnaSpec) used for detecting gut transition of Aβ
- Gut segment in which TAMRA fluorescence was detected (2 cm sections, 1 = stomach to 12 = rectal) ([1]; 5xFAD transgenic mouse, 2 h after treatment): 11
- Gut segment in which TAMRA fluorescence was detected (2 cm sections, 1 = stomach to 12 = rectal) ([1]; 5xFAD transgenic mouse, 4 h after treatment): 11
- TAMRA fluorescence signal in chyme of gut segments ([1]; wild type and 5xFAD mice, 24 h after treatment, any sample): No signal could be detected
- Gut segment in which TAMRA fluorescence was detected (2 cm sections, 1 = stomach to 12 = rectal) ([1]; wild type mouse, 4 h after treatment): 11

Substance: human Aβ1–42 [Aβ42]
- Antimicrobial effect on Enterococcus faecalis (Enterococcus faecalis): antimicrobial effect
- Viability of fecal microorganisms vs scrambled peptide treated samples ([2]; fecal samples from transgenic 5xFAD mice): no such toxic effect
- Viability of fecal microorganisms vs scrambled peptide treated samples ([2]; fecal samples from wild type mice): significantly reduce viability
- Enterobacteriaceae CFU vs scrambled peptide control (Enterobacteriaceae; fecal material from transgenic 5xFAD mice, n = 10–11, p = 0.09): non-significant reduction
- Enterobacteriaceae CFU vs scrambled peptide control (Enterobacteriaceae; fecal material from wild type mice, n = 10–11): significantly reduced
- Lactobacillaceae CFU vs scrambled peptide control (Lactobacillaceae; fecal material from transgenic 5xFAD mice): no significant effects
- Lactobacillaceae CFU vs scrambled peptide control (Lactobacillaceae; fecal material from wild type mice): significantly reduced
- Beta diversity, Bray–Curtis dissimilarity (CAP), difference vs scrambled Aβ-fed animals (gut microbiome): not significant
- Beta diversity, Jaccard distance based ordination (CAP), vs scrambled Aβ-fed animals (gut microbiome): significantly differed
- Antimicrobial effect on Candida albicans (Candida albicans): antimicrobial effect
